Measured values taken from patent US20230085307A1, “PYRIDAZINONE COMPOUND AND HERBICIDE” (NISSAN CHEMICAL CORPORATION, priority 2019, published 2023).

How the values were obtained:
late watergrass = assay: Test Example 1: herbicidal activity, application before weed generation under submerged conditions (Table 16, symbol A); type: in vivo, late watergrass (Echinochloa oryzicola); conditions: 320 g/ha applied herbicide
Outline: (§1)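 Emulsion formulation, water-diluted to set dose, was put onto the flooded surface (4 cm depth, alluvial soil) the same day weeds were sown and 2.5-leaf rice transplanted. After 3 weeks at 25-30 °C under glass, each species was rated 0 (≤5% kill) to 5 (≥90% kill).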

Japanese bulrush = assay: Test Example 1: herbicidal activity, application before weed generation under submerged conditions (Table 16, symbol B); type: in vivo, Japanese bulrush (Schoenoplectus juncoides); conditions: 320 g/ha applied herbicide
Outline: as §1

oval-leafed pondweed = assay: Test Example 1: herbicidal activity, application before weed generation under submerged conditions (Table 16, symbol C); type: in vivo, oval-leafed pondweed (Monochoria vaginalis); conditions: 320 g/ha applied herbicide
Outline: as §1

barnyard grass [1] = assay: Test Example 3: herbicidal effect by foliage application, Wagner pot (Table 18, symbol H); type: in vivo, barnyard grass (Echinochloa crus-galli); conditions: 320 g/ha
Outline: (§2)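 Plants were sown in alluvial soil held under 0.1–0.5 cm standing water and grown 14 days in a greenhouse at 25–30 °C. An emulsifiable formulation, water-diluted to the set dose, was then sprayed onto the foliage, and effects were scored three weeks later using previously defined criteria.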

Chinese sprangletop = assay: Test Example 3: herbicidal effect by foliage application, Wagner pot (Table 18, symbol D); type: in vivo, chinese sprangletop (Leptochloa chinensis); conditions: 320 g/ha
Outline: as §2

rice flat sedge = assay: Test Example 3: herbicidal effect by foliage application, Wagner pot (Table 18, symbol E); type: in vivo, rice flat sedge (Cyperus iria); conditions: 320 g/ha
Outline: as §2

southern crabgrass [2] = assay: Test Example 4: herbicidal effect by soil treatment (Table 19, symbol F); type: in vivo, southern crabgrass (Digitaria ciliaris); conditions: amount of applied herbicide 320 g/ha
Outline: (§3)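 Applied as a water-diluted emulsion, the compound was sprayed onto soil covering newly sown seeds. Evaluation came three weeks after application, in a greenhouse held at 25° C. to 30° C.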

green foxtail [3] = assay: Test Example 4: herbicidal effect by soil treatment (Table 19, symbol G); type: in vivo, green foxtail (Setaria viridis); conditions: amount of applied herbicide 320 g/ha
Outline: as §3

barnyard grass [4] = assay: Test Example 4: herbicidal effect by soil treatment (Table 19, symbol H); type: in vivo, barnyard grass (Echinochloa crus-galli); conditions: amount of applied herbicide 320 g/ha
Outline: as §3

wild oat [5] = assay: Test Example 4: herbicidal effect by soil treatment (Table 19, symbol I); type: in vivo, wild oat (Avena fatua); conditions: amount of applied herbicide 320 g/ha
Outline: as §3

blackgrass [6] = assay: Test Example 4: herbicidal effect by soil treatment (Table 19, symbol J); type: in vivo, blackgrass (Alopecurus myosuroides); conditions: amount of applied herbicide 320 g/ha
Outline: as §3

Italian ryegrass [7] = assay: Test Example 4: herbicidal effect by soil treatment (Table 19, symbol K); type: in vivo, Italian ryegrass (Lolium multiflorum); conditions: amount of applied herbicide 320 g/ha
Outline: as §3

windgrass [8] = assay: Test Example 4: herbicidal effect by soil treatment (Table 19, symbol L); type: in vivo, windgrass (Apera spica-venti); conditions: amount of applied herbicide 320 g/ha
Outline: as §3

velvetleaf [9] = assay: Test Example 4: herbicidal effect by soil treatment (Table 19, symbol M); type: in vivo, velvetleaf (Abutilon theophrasti); conditions: amount of applied herbicide 320 g/ha
Outline: as §3

redroot pigweed [10] = assay: Test Example 4: herbicidal effect by soil treatment (Table 19, symbol N); type: in vivo, redroot pigweed (Amaranthus retroflexus); conditions: amount of applied herbicide 320 g/ha
Outline: as §3

lambsquarters [11] = assay: Test Example 4: herbicidal effect by soil treatment (Table 19, symbol O); type: in vivo, lambsquarters (Chenopodium album); conditions: amount of applied herbicide 320 g/ha
Outline: as §3

chickweed [12] = assay: Test Example 4: herbicidal effect by soil treatment (Table 19, symbol P); type: in vivo, common chickweed (Stellaria media); conditions: amount of applied herbicide 320 g/ha
Outline: as §3

false cleavers [13] = assay: Test Example 4: herbicidal effect by soil treatment (Table 19, symbol Q); type: in vivo, false cleavers (Galium spurium); conditions: amount of applied herbicide 320 g/ha
Outline: as §3

persian speedwell [14] = assay: Test Example 4: herbicidal effect by soil treatment (Table 19, symbol R); type: in vivo, Persian speedwell (Veronica persica); conditions: amount of applied herbicide 320 g/ha
Outline: as §3

southern crabgrass [15] = assay: Test Example 5: herbicidal effect by foliage application, plastic box (Table 20, symbol F); type: in vivo, southern crabgrass (Digitaria ciliaris); conditions: foliage application, 320 g/ha, three weeks after application
Outline: (§4)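 Sow seeds spot-wise in sterilized diluvial soil; cover with ~1.5 cm soil. Grow 14 days in greenhouse, 25° C. to 30° C. Spray foliage with emulsion diluted to predetermined amount. Rate effect after 3 weeks.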

green foxtail [16] = assay: Test Example 5: herbicidal effect by foliage application, plastic box (Table 20, symbol G); type: in vivo, green foxtail (Setaria viridis); conditions: foliage application, 320 g/ha, three weeks after application
Outline: as §4

barnyard grass [17] = assay: Test Example 5: herbicidal effect by foliage application, plastic box (Table 20, symbol H); type: in vivo, barnyard grass (Echinochloa crus-galli); conditions: foliage application, 320 g/ha, three weeks after application
Outline: as §4

wild oat [18] = assay: Test Example 5: herbicidal effect by foliage application, plastic box (Table 20, symbol I); type: in vivo, wild oat (Avena fatua); conditions: foliage application, 320 g/ha, three weeks after application
Outline: as §4

blackgrass [19] = assay: Test Example 5: herbicidal effect by foliage application, plastic box (Table 20, symbol J); type: in vivo, blackgrass (Alopecurus myosuroides); conditions: foliage application, 320 g/ha, three weeks after application
Outline: as §4

Italian ryegrass [20] = assay: Test Example 5: herbicidal effect by foliage application, plastic box (Table 20, symbol K); type: in vivo, Italian ryegrass (Lolium multiflorum); conditions: foliage application, 320 g/ha, three weeks after application
Outline: as §4

windgrass [21] = assay: Test Example 5: herbicidal effect by foliage application, plastic box (Table 20, symbol L); type: in vivo, windgrass (Apera spica-venti); conditions: foliage application, 320 g/ha, three weeks after application
Outline: as §4

velvetleaf [22] = assay: Test Example 5: herbicidal effect by foliage application, plastic box (Table 20, symbol M); type: in vivo, velvetleaf (Abutilon theophrasti); conditions: foliage application, 320 g/ha, three weeks after application
Outline: as §4

redroot pigweed [23] = assay: Test Example 5: herbicidal effect by foliage application, plastic box (Table 20, symbol N); type: in vivo, redroot pigweed (Amaranthus retroflexus); conditions: foliage application, 320 g/ha, three weeks after application
Outline: as §4

lambsquarters [24] = assay: Test Example 5: herbicidal effect by foliage application, plastic box (Table 20, symbol O); type: in vivo, lambsquarters (Chenopodium album); conditions: foliage application, 320 g/ha, three weeks after application
Outline: as §4

chickweed [25] = assay: Test Example 5: herbicidal effect by foliage application, plastic box (Table 20, symbol P); type: in vivo, common chickweed (Stellaria media); conditions: foliage application, 320 g/ha, three weeks after application
Outline: as §4

false cleavers [26] = assay: Test Example 5: herbicidal effect by foliage application, plastic box (Table 20, symbol Q); type: in vivo, false cleavers (Galium spurium); conditions: foliage application, 320 g/ha, three weeks after application
Outline: as §4

persian speedwell [27] = assay: Test Example 5: herbicidal effect by foliage application, plastic box (Table 20, symbol R); type: in vivo, Persian speedwell (Veronica persica); conditions: foliage application, 320 g/ha, three weeks after application
Outline: as §4

Structure (SMILES): Cc1nn(C)c(=O)c(-c2c(-c3ccccc3OC(C)C)sc3ccccc23)c1O [1-017]
- Herbicidal effect on A: late watergrass (grade 0-5) (late watergrass): 3 (Herbicidal rate of 40% or more and less than 70%)
- Herbicidal effect on B: Japanese bulrush (grade 0-5) (Japanese bulrush): 3 (Herbicidal rate of 40% or more and less than 70%)
- Herbicidal effect on C: oval-leafed pondweed (grade 0-5) (oval-leafed pondweed): 3 (Herbicidal rate of 40% or more and less than 70%)
- herbicidal effect on H (barnyard grass), rating 0-5 (barnyard grass [1]): 5 (Herbicidal rate of 90% or more (almost completely withered))
- herbicidal effect on D (Chinese sprangletop), rating 0-5 (Chinese sprangletop): 0 (Herbicidal rate of 5% or less (almost no effect))
- herbicidal effect on E (rice flat sedge), rating 0-5 (rice flat sedge): 3 (Herbicidal rate of 40% or more and less than 70%)
- herbicidal effect rating, F: southern crabgrass (southern crabgrass [2]): 0 (Herbicidal rate of 5% or less (almost no effect))
- herbicidal effect rating, G: green foxtail (green foxtail [3]): 0 (Herbicidal rate of 5% or less (almost no effect))
- herbicidal effect rating, H: barnyard grass (barnyard grass [4]): 0 (Herbicidal rate of 5% or less (almost no effect))
- herbicidal effect rating, I: wild oat (wild oat [5]): 1 (Herbicidal rate of 5% or more and less than 20%)
- herbicidal effect rating, J: blackgrass (blackgrass [6]): 2 (Herbicidal rate of 20% or more and less than 40%)
- herbicidal effect rating, K: Italian ryegrass (Italian ryegrass [7]): 0 (Herbicidal rate of 5% or less (almost no effect))
- herbicidal effect rating, L: windgrass (windgrass [8]): 0 (Herbicidal rate of 5% or less (almost no effect))
- herbicidal effect rating, M: velvetleaf (velvetleaf [9]): 0 (Herbicidal rate of 5% or less (almost no effect))
- herbicidal effect rating, N: redroot pigweed (redroot pigweed [10]): 0 (Herbicidal rate of 5% or less (almost no effect))
- herbicidal effect rating, O: lambsquarters (lambsquarters [11]): 0 (Herbicidal rate of 5% or less (almost no effect))
- herbicidal effect rating, P: chickweed (chickweed [12]): 4 (Herbicidal rate of 70% or more and less than 90%)
- herbicidal effect rating, Q: false cleavers (false cleavers [13]): 0 (Herbicidal rate of 5% or less (almost no effect))
- herbicidal effect rating, R: persian speedwell (persian speedwell [14]): 4 (Herbicidal rate of 70% or more and less than 90%)
- herbicidal effect grade, F: southern crabgrass (southern crabgrass [15]): 3 (Herbicidal rate of 40% or more and less than 70%)
- herbicidal effect grade, G: green foxtail (green foxtail [16]): 4 (Herbicidal rate of 70% or more and less than 90%)
- herbicidal effect grade, H: barnyard grass (barnyard grass [17]): 4 (Herbicidal rate of 70% or more and less than 90%)
- herbicidal effect grade, I: wild oat (wild oat [18]): 4 (Herbicidal rate of 70% or more and less than 90%)
- herbicidal effect grade, J: blackgrass (blackgrass [19]): 4 (Herbicidal rate of 70% or more and less than 90%)
- herbicidal effect grade, K: Italian ryegrass (Italian ryegrass [20]): 2 (Herbicidal rate of 20% or more and less than 40%)
- herbicidal effect grade, L: windgrass (windgrass [21]): 4 (Herbicidal rate of 70% or more and less than 90%)
- herbicidal effect grade, M: velvetleaf (velvetleaf [22]): 4 (Herbicidal rate of 70% or more and less than 90%)
- herbicidal effect grade, N: redroot pigweed (redroot pigweed [23]): 4 (Herbicidal rate of 70% or more and less than 90%)
- herbicidal effect grade, O: lambsquarters (lambsquarters [24]): 3 (Herbicidal rate of 40% or more and less than 70%)
- herbicidal effect grade, P: chickweed (chickweed [25]): 5 (Herbicidal rate of 90% or more (almost completely withered))
- herbicidal effect grade, Q: false cleavers (false cleavers [26]): 5 (Herbicidal rate of 90% or more (almost completely withered))
- herbicidal effect grade, R: persian speedwell (persian speedwell [27]): 5 (Herbicidal rate of 90% or more (almost completely withered))
